Data from PubChem BioAssay AID248 (DTP/NCI, 2004).
“And” between values parts separate entries of the source, which are not always exact repeats. Equal values may be shown once. Inconclusive results and toxic doses are left out.

Test system: L1210 leukemia ip in BDF1 mice, survival T/C
Test: NCI In Vivo Anticancer Drug Screen. Data for tumor model L1210 Leukemia (intraperitoneal) in B6D2F1 (BDF1) mice
Conditions: endpoint: mean survival time, higher = longer survival
How it was run: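 Each compound was tested against a transplantable tumor grown in mice. The endpoint was survival, with treated animals benchmarked against vehicle controls as a simple ratio.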

## C=C(Cl)CNN1CCOCC1
dose: 25.0 mg/kg/injection, schedule: Q01DX009 (ip), vehicle: saline with Tween-80
  T/C: 96 % of control
dose: 25.0 mg/kg/injection, schedule: Q04DX003 (ip), vehicle: saline with Tween-80
  T/C: 95 % of control
dose: 50.0 mg/kg/injection, schedule: Q01DX009 (ip), vehicle: saline with Tween-80
  T/C: 98 % of control
dose: 50.0 mg/kg/injection, schedule: Q04DX003 (ip), vehicle: saline with Tween-80
  T/C: 97 % of control
dose: 100.0 mg/kg/injection, schedule: Q01DX009 (ip), vehicle: saline with Tween-80
  T/C: 114 % of control
dose: 100.0 mg/kg/injection, schedule: Q04DX003 (ip), vehicle: saline with Tween-80
  T/C: 98 % of control and 111 % of control
dose: 200.0 mg/kg/injection, schedule: Q04DX003 (ip), vehicle: saline with Tween-80
  T/C: 94 % of control

## O=C(CCCC(=O)N/N=C/c1cccc(I)c1)N/N=C\c1cccc(I)c1
dose: 50.0 mg/kg/injection, schedule: Q01DX001 (ip), vehicle: saline
  T/C: 100 % of control
dose: 100.0 mg/kg/injection, schedule: Q01DX001 (ip), vehicle: saline
  T/C: 100 % of control
dose: 200.0 mg/kg/injection, schedule: Q01DX001 (ip), vehicle: saline
  T/C: 100 % of control
dose: 400.0 mg/kg/injection, schedule: Q01DX001 (ip), vehicle: saline
  T/C: 97 % of control

## O=NN(CCCl)C(=O)N[C@@H]1CCCC[C@H]1O
dose: 1.6 mg/kg/injection, schedule: Q01DX001 (ip), vehicle: saline with Tween-80
  T/C: 106 % of control
dose: 2.4 mg/kg/injection, schedule: Q01DX001 (ip), vehicle: saline with Tween-80
  T/C: 116 % of control
dose: 5.4 mg/kg/injection, schedule: Q01DX001 (ip), vehicle: saline with Tween-80
  T/C: 183 % of control
dose: 6.0 mg/kg/injection, schedule: Q01DX001 (ip), vehicle: saline with Tween-80
  T/C: 302 % of control
dose: 8.0 mg/kg/injection, schedule: Q01DX001 (ip), vehicle: saline with Tween-80
  T/C: 441 % of control
dose: 9.0 mg/kg/injection, schedule: Q01DX001 (ip), vehicle: saline with Tween-80
  T/C: 492 % of control
dose: 12.0 mg/kg/injection, schedule: Q01DX001 (ip), vehicle: saline with Tween-80
  T/C: 441 % of control and 468 % of control
dose: 13.0 mg/kg/injection, schedule: Q01DX001 (ip), vehicle: saline with Tween-80
  T/C: 505 % of control
dose: 18.0 mg/kg/injection, schedule: Q01DX001 (ip), vehicle: saline with Tween-80
  T/C: 441 % of control
dose: 20.0 mg/kg/injection, schedule: Q01DX001 (ip), vehicle: saline with Tween-80
  T/C: 505 % of control
dose: 26.0 mg/kg/injection, schedule: Q01DX001 (ip), vehicle: saline with Tween-80
  T/C: 166 % of control
dose: 30.0 mg/kg/injection, schedule: Q01DX001 (ip), vehicle: saline with Tween-80
  T/C: 195 % of control

## Cc1cc(C)c(C)[nH]1
dose: 6.25 mg/kg/injection, schedule: Q01DX009 (ip), vehicle: water
  T/C: 104 % of control
dose: 12.5 mg/kg/injection, schedule: Q01DX009 (ip), vehicle: water
  T/C: 101 % of control
dose: 25.0 mg/kg/injection, schedule: Q01DX009 (ip), vehicle: water
  T/C: 114 % of control
dose: 50.0 mg/kg/injection, schedule: Q01DX009 (ip), vehicle: water
  T/C: 105 % of control and 121 % of control

## NC(CCc1cc(O)ccc1O)C(=O)O (centres undefined)
dose: 100.0 mg/kg/injection, schedule: Q04DX003 (ip), vehicle: saline
  T/C: 105 % of control
dose: 200.0 mg/kg/injection, schedule: Q04DX003 (ip), vehicle: saline
  T/C: 107 % of control
dose: 400.0 mg/kg/injection, schedule: Q04DX003 (ip), vehicle: saline
  T/C: 98 % of control

## C#CCC(B1OCCO1)B1OCCO1
dose: 50.0 mg/kg/injection, schedule: Q01DX001 (ip), vehicle: Klucel (hydroxypropylcellulose) (HPC)
  T/C: 97 % of control
dose: 100.0 mg/kg/injection, schedule: Q01DX001 (ip), vehicle: Klucel (hydroxypropylcellulose) (HPC)
  T/C: 90 % of control
dose: 200.0 mg/kg/injection, schedule: Q01DX001 (ip), vehicle: Klucel (hydroxypropylcellulose) (HPC)
  T/C: 100 % of control

## CC(=O)OC1CCC2(C)C(CCC3C2CCC2(C)C3C(c3ccccc3Cl)C3C=NN(c4ccccc4)C32C(=O)c2ccccc2)C1 (centres undefined)
dose: 25.0 mg/kg/injection, schedule: Q04DX002 (ip), vehicle: Klucel (hydroxypropylcellulose) (HPC)
  T/C: 97 % of control
dose: 50.0 mg/kg/injection, schedule: Q04DX002 (ip), vehicle: Klucel (hydroxypropylcellulose) (HPC)
  T/C: 94 % of control
dose: 100.0 mg/kg/injection, schedule: Q04DX002 (ip), vehicle: Klucel (hydroxypropylcellulose) (HPC)
  T/C: 94 % of control

## O=C(O)c1cc([N+](=O)[O-])ccc1Br
dose: 50.0 mg/kg/injection, schedule: Q01DX009 (ip), vehicle: Klucel (hydroxypropylcellulose) (HPC)
  T/C: 89 % of control
dose: 100.0 mg/kg/injection, schedule: Q01DX009 (ip), vehicle: Klucel (hydroxypropylcellulose) (HPC)
  T/C: 86 % of control
dose: 200.0 mg/kg/injection, schedule: Q01DX009 (ip), vehicle: Klucel (hydroxypropylcellulose) (HPC)
  T/C: 93 % of control
